Source: ChEMBL document CHEMBL1201862, “PubChem BioAssay data set” (2004)
“And” between values parts separate entries of the source, which are not always exact repeats. Equal values may be shown once.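 Interpolation was linear, between the two tested concentrations surrounding the appropriate level; five concentrations were tested over 48 hours in 96-well plates. GI50 marks 50% less growth.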 The source made the active and inactive calls. No stated cut-off is given here; in the data, active = GI50 up to about 1.1 µM and inactive = higher.

Assays:
Test in all cases: NCI tumour cell line growth inhibition, 48 h
[1] = tested on: Malme-3M
[2] = tested on: HCT-15
[3] = tested on: LOX IMVI
[4] = tested on: NCI-H226
[5] = tested on: SN12C
[6] = tested on: OVCAR-8
[7] = tested on: XF498
[8] = tested on: LXFL 529
[9] = tested on: SNB-75
[10] = tested on: K562
[11] = tested on: COLO 205
[12] = tested on: OVCAR-4
[13] = tested on: A498
[14] = tested on: EKVX
[15] = tested on: A549
[16] = tested on: HOP-62
[17] = tested on: UACC-62
[18] = tested on: RXF 631
[19] = tested on: MOLT-4
[20] = tested on: SF-268
[21] = tested on: SK-OV-3
[22] = tested on: SNB-78
[23] = tested on: HOP-18
[24] = tested on: DLD-1
[25] = tested on: M19-MEL
[26] = tested on: SF-539
[27] = tested on: OVCAR-3
[28] = tested on: IGROV-1
[29] = tested on: U-251
[30] = tested on: CAKI-1
[31] = tested on: KM-20L2
[32] = tested on: HT-29
[33] = tested on: M14
[34] = tested on: SK-MEL-2
[35] = tested on: TK-10
[36] = tested on: NCI-H460
[37] = tested on: SK-MEL-5
[38] = tested on: NCI-H23
[39] = tested on: DMS-114
[40] = tested on: CCRF-CEM
[41] = tested on: SNB-19
[42] = tested on: HOP-92
[43] = tested on: RPMI-8226
[44] = tested on: UO-31
[45] = tested on: ACHN
[46] = tested on: SF-295
[47] = tested on: SW-620
[48] = tested on: NCI-H522
[49] = tested on: DMS-273
[50] = tested on: SK-MEL-28
[51] = tested on: HL-60
[52] = tested on: 786-0
[53] = tested on: SR
[54] = tested on: KM12
[55] = tested on: HCT-116
[56] = tested on: HCC 2998
[57] = tested on: OVCAR-5
[58] = tested on: UACC-257
[59] = tested on: RXF 393

## C/C=C(/CCC1NCCc2c1[nH]c1ccccc21)[Si](C)(C)C (centres undefined)
[1]
  GI50: 33.3 µM (inactive) and 1.78 µM (inactive)
[2]
  GI50: 6.27 µM
[3]
  GI50: 4.42 µM (inactive)
[4]
  GI50: 13.8 µM (inactive)
[5]
  GI50: 5.61 µM (inactive)
[6]
  GI50: 8.97 µM (inactive)
[7]
  GI50: 74.3 µM (inactive) and 1.73 µM (inactive)
[8]
  GI50: 1.85 µM (inactive)
[9]
  GI50: 95.3 µM (inactive) and 6.17 µM (inactive)
[10]
  GI50: 29.2 µM (inactive) and 2.49 µM (inactive)
[11]
  GI50: 1.94 µM (inactive)
[12]
  GI50: 81.7 µM (inactive) and 4.11 µM (inactive)
[13]
  GI50: 19.2 µM (inactive) and 11.3 µM (inactive)
[14]
  GI50: 7.85 µM (inactive)
[15]
  GI50: 14.2 µM (inactive)
[16]
  GI50: 13.5 µM (inactive)
[17]
  GI50: 78.9 µM (inactive) and 12.8 µM (inactive)
[18]
  GI50: 58.5 µM (inactive) and 6.87 µM (inactive)
[19]
  GI50: 37.2 µM (inactive) and 2.37 µM (inactive)
[20]
  GI50: 10.9 µM (inactive)
[21]
  GI50: 13.4 µM (inactive)
[22]
  GI50: 11.6 µM (inactive)
[23]
  GI50: 11.9 µM (inactive)
[24]
  GI50: 8.3 µM (inactive)

## c1ccc2c(c1)nc1n2CSC1
[25]
  GI50: > 100 µM (inactive)
[26]
  GI50: > 100 µM (inactive)
[27]
  GI50: > 100 µM (inactive)
[28]
  GI50: > 100 µM (inactive)
[29]
  GI50: > 100 µM (inactive)
[30]
  GI50: > 100 µM (inactive)
[1]
  GI50: > 100 µM (inactive)
[2]
  GI50: > 100 µM
[3]
  GI50: > 100 µM (inactive)
[4]
  GI50: > 100 µM (inactive)
[31]
  GI50: > 100 µM (inactive)
[5]
  GI50: > 100 µM (inactive)
[6]
  GI50: > 100 µM (inactive)
[32]
  GI50: > 100 µM (inactive)
[33]
  GI50: > 100 µM (inactive)
[34]
  GI50: > 100 µM (inactive)
[35]
  GI50: > 100 µM (inactive)
[36]
  GI50: > 100 µM (inactive)
[7]
  GI50: > 100 µM (inactive)
[37]
  GI50: > 100 µM (inactive)
[38]
  GI50: > 100 µM (inactive)
[39]
  GI50: > 100 µM (inactive)
[40]
  GI50: > 100 µM (inactive)
[8]
  GI50: > 100 µM (inactive)
[9]
  GI50: > 100 µM (inactive)
[10]
  GI50: > 100 µM (inactive)
[41]
  GI50: > 100 µM (inactive)
[11]
  GI50: > 100 µM (inactive)
[42]
  GI50: 24 µM (inactive)
[13]
  GI50: > 100 µM (inactive)
[14]
  GI50: > 100 µM (inactive)
[43]
  GI50: > 100 µM (inactive)
[44]
  GI50: > 100 µM (inactive)
[17]
  GI50: > 100 µM (inactive)
[45]
  GI50: > 100 µM (inactive)
[18]
  GI50: > 100 µM (inactive)
[46]
  GI50: > 100 µM (inactive)
[19]
  GI50: > 100 µM (inactive)
[47]
  GI50: > 100 µM (inactive)
[20]
  GI50: > 100 µM (inactive)
[21]
  GI50: > 100 µM (inactive)
[22]
  GI50: > 100 µM (inactive)
[48]
  GI50: > 100 µM (inactive)
[23]
  GI50: > 100 µM (inactive)
[24]
  GI50: > 100 µM (inactive)
[49]
  GI50: > 100 µM (inactive)
[50]
  GI50: > 100 µM (inactive)
[51]
  GI50: > 100 µM (inactive)

## Clc1ccc(OCc2nnc3n2N=C(c2ccccc2)CS3)cc1
[52]
  GI50: 16.2 µM (inactive)
[25]
  GI50: 16.9 µM (inactive)
[26]
  GI50: 18.2 µM (inactive)
[27]
  GI50: 16.9 µM (inactive)
[28]
  GI50: 4.47 µM (inactive)
[29]
  GI50: 17.9 µM (inactive)
[30]
  GI50: 24.9 µM (inactive)
[1]
  GI50: 17.9 µM (inactive)
[2]
  GI50: 13.8 µM
[3]
  GI50: 17 µM (inactive)
[53]
  GI50: 6.5 µM (inactive)
[4]
  GI50: 21.5 µM (inactive)
[31]
  GI50: 15.2 µM (inactive)
[5]
  GI50: 11.7 µM (inactive)
[6]
  GI50: 14.1 µM (inactive)
[32]
  GI50: 16.3 µM (inactive)
[33]
  GI50: 21.5 µM (inactive)
[34]
  GI50: 18 µM (inactive)
[54]
  GI50: 15.9 µM (inactive)
[35]
  GI50: 27.3 µM (inactive)
[36]
  GI50: 16.8 µM (inactive)
[7]
  GI50: 17.1 µM (inactive)
[38]
  GI50: 12.2 µM (inactive)
[55]
  GI50: 11.2 µM (inactive)
[56]
  GI50: 16.6 µM (inactive)
[57]
  GI50: 21.3 µM (inactive)
[8]
  GI50: 13.6 µM (inactive)
[9]
  GI50: 27 µM (inactive)
[10]
  GI50: 12.7 µM (inactive)
[41]
  GI50: 18.7 µM (inactive)
[11]
  GI50: 15.3 µM (inactive)
[42]
  GI50: 20.9 µM (inactive)
[12]
  GI50: 15.6 µM (inactive)
[15]
  GI50: 16.4 µM (inactive)
[16]
  GI50: 19.1 µM (inactive)
[43]
  GI50: 10.8 µM (inactive)
[44]
  GI50: 5.42 µM (inactive)
[17]
  GI50: 11.1 µM (inactive)
[45]
  GI50: 10.9 µM (inactive)
[18]
  GI50: 14 µM (inactive)
[46]
  GI50: 19.3 µM (inactive)
[19]
  GI50: 9.68 µM (inactive)
[47]
  GI50: 14.7 µM (inactive)
[20]
  GI50: 14.3 µM (inactive)
[21]
  GI50: 20.7 µM (inactive)
[48]
  GI50: 17.4 µM (inactive)
[24]
  GI50: 16.5 µM (inactive)
[49]
  GI50: 16 µM (inactive)
[58]
  GI50: 14.9 µM (inactive)
[50]
  GI50: 21.8 µM (inactive)
[51]
  GI50: 13 µM (inactive)

## COC(=O)C#CCC1CCCC1C1SCCS1 (centres undefined)
[52]
  GI50: > 100 µM (inactive)
[25]
  GI50: > 100 µM (inactive)
[26]
  GI50: 99.1 µM (inactive)
[27]
  GI50: 88.3 µM (inactive)
[28]
  GI50: > 100 µM (inactive)
[29]
  GI50: 59.6 µM (inactive)
[30]
  GI50: > 100 µM (inactive)
[1]
  GI50: > 100 µM (inactive)
[3]
  GI50: 50.2 µM (inactive)
[53]
  GI50: 15.8 µM (inactive)
[4]
  GI50: > 100 µM (inactive)
[31]
  GI50: 59.6 µM (inactive)
[5]
  GI50: 37.5 µM (inactive)
[6]
  GI50: 61.1 µM (inactive)
[32]
  GI50: > 100 µM (inactive)
[33]
  GI50: > 100 µM (inactive)
[34]
  GI50: 26.2 µM (inactive)
[59]
  GI50: > 100 µM (inactive)
[54]
  GI50: 36.7 µM (inactive)
[35]
  GI50: > 100 µM (inactive)
[7]
  GI50: 41 µM (inactive)
[37]
  GI50: > 100 µM (inactive)
[38]
  GI50: > 100 µM (inactive)
[39]
  GI50: > 100 µM (inactive)
[55]
  GI50: > 100 µM (inactive)
[56]
  GI50: > 100 µM (inactive)
[57]
  GI50: > 100 µM (inactive)
[40]
  GI50: 29.2 µM (inactive)
[8]
  GI50: 70.1 µM (inactive)
[9]
  GI50: > 100 µM (inactive)
[10]
  GI50: 43.5 µM (inactive)
[41]
  GI50: 91.4 µM (inactive)
[11]
  GI50: > 100 µM (inactive)
[42]
  GI50: > 100 µM (inactive)
[12]
  GI50: 71.4 µM (inactive)
[13]
  GI50: > 100 µM (inactive)
[14]
  GI50: > 100 µM (inactive)
[15]
  GI50: > 100 µM (inactive)
[16]
  GI50: > 100 µM (inactive)
[44]
  GI50: > 100 µM (inactive)
[17]
  GI50: 35.8 µM (inactive)
[45]
  GI50: 34 µM (inactive)
[18]
  GI50: > 100 µM (inactive)
[46]
  GI50: 90.6 µM (inactive)
[19]
  GI50: 21.2 µM (inactive)
[47]
  GI50: > 100 µM (inactive)
[20]
  GI50: > 100 µM (inactive)
[21]
  GI50: > 100 µM (inactive)
[22]
  GI50: 23.6 µM (inactive)
[48]
  GI50: 28 µM (inactive)
[23]
  GI50: > 100 µM (inactive)
[24]
  GI50: 73.5 µM (inactive)
[49]
  GI50: 30.4 µM (inactive)
[58]
  GI50: 51.3 µM (inactive)
[50]
  GI50: > 100 µM (inactive)
[51]
  GI50: 38.1 µM (inactive)
